# Source: publication PMC7440915, “Discovery of surrogate agonists for visceral fat Treg cells that modulate metabolic indices in vivo” (eLife, 2020)
# Where no end group is shown, it is not given here.
# What was measured:
# [1] = test system: vTreg53 TCR (transduced Jurkat T cells); assay: CD69/CD25 up-regulation on vTreg53 TCR transduced Jurkat T cells with peptide-pulsed K562-A^b cells; assay type: cell-based, Homo sapiens (cells); murine TCR
# Method: (§1) Figure 3. Identification of robust vTreg53 TCR agonists. Single-point mutants based on the Fat7 (A) or Fat15 (B) peptides were used to stimulate Fat-TCR transduced Jurkat T cells. Data shown are mean fluorescence intensity for CD69 up-regulation following overnight stimulation with the indicated peptides at 100 µM. (C) Potent SPs based on Fat15. Single-residue mutations from the Fat15 are shown in red. Anchor positions are shown in grey and potential TCR-facing positions are shown in green. A peptide titration of single- and double-point mutants from the Fat15 SP show up to ~4- (D; CD69) or ~8 fold (E; CD25) increase in Emax. (F) Surface plasmon resonance for Fat7, Fat15, Fat1562 and Fat2564 was used to determine the pMHC/Fat TCR affinity. All biotinylated pMHC were purified by SEC and immobilized in a streptavidin-coated SPR sensor chip from 200 up to 600 RU. Data are mean ± SD from n = 2 (A, D, E) or 3 (B) biological replicates from 1 representative of 3 independent experiments. Data shown in (F) is representative of 2 independent experiments. Figure 3—figure supplement 1. In vitro peptide stimulation of the vTreg53 TCR cells. (A) Expression of wild-type Ab MHC in stably transduced K562 cells. (B) Expression of vTreg53 TCR in stably transduced Jurkat T cells (TCRαβ-/-). (C) Fraction of CD25+/CD69+ cells following overnight stimulation with Fat mimotopes at the indicated concentrations. (D) Peptide-A^b - streptavidin PE (pAb -SAPE) titration of vTreg53 transduced Jurkat T cells. Cells were stained with 250 nM of pA^b-SAPE tetramer for 1 hr.
# Cell lines were kept in a humidified incubator at 37°C with 5% CO2 unless otherwise denoted. Jurkat T cells (derived from acute T cell leukemia ATCC TIB-152) and K562 cells (ATCC CCL-243) were cultured in RPMI supplemented with 2 mM glutamax (Invitrogen), 10% FBS (Sigma),10 mM HEPES pH 8.0 (ThermoFisher), 1 mM Sodium Pyruvate (Gibco) and 50 U/ml penicillin and streptomycin (ThermoFisher). Validation of T cell lines was performed by staining with known markers pre- and post- transfection or transduction. HEK293T (Lenti-X; Takara Bio USA, #632180) cells (female derived kidney cell line) were grown in DMEM complete media (ThermoFisher) supplemented with 10% FBS, 2 mM L-glutamine, and 50 U/ml of penicillin and streptomycin. Cells were tested for mycoplasma contamination using the MycoAlert Mycoplasma Detection kit (Lonza) and found to be mycoplasma-negative. For peptide assays, Jurkat T cells were rested overnight or for 2–3 hr in fresh RPMI complete. Cells were co-cultured for 16 to 48 hr with surrogate APCs: K562 transduced with A^b. After overnight incubation, cells were washed in MACS buffer and stained with anti-TCR, A^b, CD69 and CD25. EBY100 yeast cells were cultured in sterile filtered standard YPD (Bacto Peptone, glucose and yeast extract). Transformed yeast were grown in SDCAA (yeast nitrogen base, casamino acids -ADE, -URA, -TRP, D-glucose and buffered to pH 4.5 using sodium citrate and citric acid monohydrate) and induced in SGCAA where galactose replaces D-glucose. EBY100 cells are grown at 30°C when cultured in SDCAA, or at 20°C when cultured in SGCAA at atmospheric CO2 in an orbital shaker set to an agitation speed of 250 rpm.
# vTreg53 (Fat) TCR = assay: Surface plasmon resonance, pMHC/Fat TCR affinity; assay type: binding, murine; conditions: 25°C
# Method: as §1
# High Five cells (Tni; Expression Systems) were grown in Insect X-press media (Lonza) or ESF 921 media (Expression Systems) with a final concentration of 10 mg/L of gentamicin sulfate (ThermoFisher) at 27°C at atmospheric CO2. SF9 cells are grown in SF900-III or -II serum-free media (ThermoFisher) with 10% FBS and final concentration 10 mg/L of gentamicin sulfate and 2 mM glutamax at 27°C at atmospheric CO2. P1 or P2 virus was used to infect volumes of 1–3 L of Hi5 cells at ∼2 × 10^6 cells/ml. Supernatant was harvested 2–3 days post-infection and spun down at 8000 rpm for 15 min. The supernatant containing expressed protein was treated to 100 mM Tris pH 8.0, 1 mM NiCl2, and 5 mM CaCl2 to precipitate contaminants. The supernatant and precipitate mixture was spun down at 8000 rpm for 20 min at 4°C to remove precipitate. The supernatant was incubated with Ni-NTA resin (QIAGEN) for >3 hr at room temperature. Ni-NTA beads were collected and washed in a Buchner funnel with 20 mM imidazole in 1 x HBS pH 7.2 and eluted with 200 mM imidazole in 1x HBS pH 7.2. Protein was concentrated in a 10 kDa filter (Millipore, UFC903024) to ~1 mL. When appropriate, protein was biotinylated with BirA ligase, 100 μM biotin, 40 mM Bicine pH 8.3, 10 mM ATP, and 10 mM Magnesium Acetate at 4°C overnight. All proteins were further purified by size-exclusion chromatography using Superdex Increase S200 or S75, as appropriate (GE Healthcare). All proteins for in vivo studies were cleared of endotoxin. Final endotoxin levels were determined using a chromogenic endotoxin quantitation kit (Thermo Fisher) and never greater than 1 Endotoxin Unit/mg of purified protein.
# A GE Biacore T100 was used to measure the KD by equilibrium methods. Approximately 200 resonance units (RU) of human CD45, PD-1 or mouse PD-1 was captured on a SA-chip (GE Healthcare), including a reference channel of an unrelated protein. SPR runs were performed in HBS-P+ (GE Healthcare). All measurements were made with 2-fold serial dilutions using 45–60 s association (at 30 μl/min) followed by >240 s dissociation (30 μl/min) at 25°C. Regeneration was performed using HBS-P+, 2 M MgCl2 or 0.1 M Glycine, pH 3.1 for 15–20 s at 50 μl/min. Measurement of titrations at equilibrium were used to determine the KD using Biacore Analysis Software (GE Healthcare). All measurements were repeated twice.
sequence,measurement,setting,value
TMYKNPRPVAATG [Fat15],CD69 up-regulation,"[1]; overnight stimulation, screen at 100 µM",able to up-regulate CD69 expression
same,EC50,"[1]; peptide titration, CD69 (Figure 3D), overnight, mean ± SD from n = 2 biological replicates, 1 representative of 3 experiments",40.7 µM
same,Kd,"vTreg53 (Fat) TCR; Biacore T100, biotinylated pMHC immobilized on SA chip 200 to 600 RU, HBS-P+, equilibrium, representative of 2 experiments",32.8 µM
same,koff,vTreg53 (Fat) TCR; SPR,fast kon and koff
same,kon,vTreg53 (Fat) TCR; SPR,fast kon
